# Source: ChEMBL document CHEMBL1201862, “PubChem BioAssay data set” (2004)
# The source made the active and inactive calls.
# Key:
# [1] = target: T1, Nucleotide-binding oligomerization domain-containing protein 1 (Homo sapiens, UniProt Q9Y239); assay: SAR analysis of NF-kappaB dependent luciferase using DAP as an inducer - Set 2. [Related pubchem assays (depositor defined):AID1566, AID1575, AID1578, AID1579, AID1849, AID1852, AID2264]; assay type: functional
# T1 sequence (Q9Y239 whole entry): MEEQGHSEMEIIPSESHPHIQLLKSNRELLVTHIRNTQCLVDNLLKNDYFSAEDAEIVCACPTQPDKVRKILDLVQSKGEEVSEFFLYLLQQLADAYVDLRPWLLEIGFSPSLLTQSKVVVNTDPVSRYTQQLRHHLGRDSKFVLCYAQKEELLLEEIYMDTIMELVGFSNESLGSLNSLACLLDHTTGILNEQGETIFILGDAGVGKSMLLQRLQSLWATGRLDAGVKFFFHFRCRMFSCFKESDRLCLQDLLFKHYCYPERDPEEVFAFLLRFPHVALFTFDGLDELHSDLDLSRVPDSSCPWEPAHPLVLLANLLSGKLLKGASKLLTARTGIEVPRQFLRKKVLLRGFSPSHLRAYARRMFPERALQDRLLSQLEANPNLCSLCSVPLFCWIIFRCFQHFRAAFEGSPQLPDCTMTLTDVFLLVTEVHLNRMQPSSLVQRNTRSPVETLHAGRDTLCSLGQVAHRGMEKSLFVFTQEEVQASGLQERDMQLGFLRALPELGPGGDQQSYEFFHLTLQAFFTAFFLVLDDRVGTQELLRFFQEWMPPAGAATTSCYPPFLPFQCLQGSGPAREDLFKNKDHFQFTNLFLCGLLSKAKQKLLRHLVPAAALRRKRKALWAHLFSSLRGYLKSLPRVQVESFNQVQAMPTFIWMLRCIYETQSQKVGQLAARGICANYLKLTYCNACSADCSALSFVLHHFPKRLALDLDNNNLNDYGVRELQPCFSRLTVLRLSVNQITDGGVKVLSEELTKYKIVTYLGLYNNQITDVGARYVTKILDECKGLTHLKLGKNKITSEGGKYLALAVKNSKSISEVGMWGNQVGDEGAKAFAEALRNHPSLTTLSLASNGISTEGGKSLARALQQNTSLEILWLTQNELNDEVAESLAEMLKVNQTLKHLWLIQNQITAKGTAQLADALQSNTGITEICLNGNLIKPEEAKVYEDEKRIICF
# Fatty acid synthase [2] = target: T2, Fatty acid synthase (Homo sapiens, UniProt P49327); assay: inhibition of human FAS-TE enzyme activity – biochemical, kinetic fluorescence intensity, dose response (AID 624326); assay type: functional;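 note: rate of fluorescence rise from hydrolysis of a fluorogenic O-methyl fluorescein ester substrate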
# [3] = target: T3, Nucleotide-binding oligomerization domain-containing protein 2 (Homo sapiens, UniProt Q9HC29); assay: inhibition of MDP-driven NOD2 NF-kB reporter – cell-based, set 3, SAR follow-up (AID 2799); assay type: functional
# [4] = target: T4, High affinity choline transporter 1 (Homo sapiens, UniProt Q9GZV3); assay: human choline transporter blockers, potency – cell-based, 5-point CRC, membrane potential dye, dose response (AID 504840); assay type: functional
# T4 sequence (Q9GZV3 whole entry): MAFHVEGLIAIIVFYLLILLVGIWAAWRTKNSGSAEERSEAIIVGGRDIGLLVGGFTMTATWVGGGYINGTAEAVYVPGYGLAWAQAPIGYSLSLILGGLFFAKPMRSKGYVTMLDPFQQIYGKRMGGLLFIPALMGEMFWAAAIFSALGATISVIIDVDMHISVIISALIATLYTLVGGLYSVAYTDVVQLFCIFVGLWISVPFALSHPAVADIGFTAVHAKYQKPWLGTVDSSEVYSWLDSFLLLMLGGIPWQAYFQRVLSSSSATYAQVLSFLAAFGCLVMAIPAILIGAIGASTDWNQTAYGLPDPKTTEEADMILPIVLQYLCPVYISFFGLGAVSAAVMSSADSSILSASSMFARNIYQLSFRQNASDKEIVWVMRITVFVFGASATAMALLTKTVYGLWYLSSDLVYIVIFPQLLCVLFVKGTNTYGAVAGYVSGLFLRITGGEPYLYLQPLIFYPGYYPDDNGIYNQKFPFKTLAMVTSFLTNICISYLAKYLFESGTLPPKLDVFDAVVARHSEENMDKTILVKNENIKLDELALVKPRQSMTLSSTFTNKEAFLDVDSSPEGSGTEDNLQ
# HEK293 [5] = assay: SAR analysis of compounds that are cytotoxic to HEK293 - Set 2. [Related pubchem assays (depositor defined):AID1575, AID1578, AID1849, AID2001, AID2333, AID2334, AID2335, AID2337, AID2800]; assay type: functional, cell-based; settings: Homo sapiens
# [6] = target: T1, Nucleotide-binding oligomerization domain-containing protein 1; assay: SAR analysis of compounds that inhibit NOD1 - Set 2. [Related pubchem assays (depositor defined):AID1566, AID1575, AID1578, AID1849, AID1852, AID2333, AID2335, AID2798]; assay type: functional
# HEK293 [7] = assay: SAR analysis of compounds that are cytotoxic to HEK293 - Set 3. [Related pubchem assays (depositor defined):AID1575, AID1578, AID1848, AID1849, AID2001, AID2333, AID2334, AID2335, AID2337, AID2469]; assay type: functional, cell-based; settings: Homo sapiens
# Tumor necrosis factor [8] = target: T5, Tumor necrosis factor (Homo sapiens, UniProt P01375); assay: analog potency on TNFa NF-kB signaling – cell-based, set 3, SAR follow-up (AID 2801); assay type: functional
# [9] = target: T1, Nucleotide-binding oligomerization domain-containing protein 1; assay: SAR analysis of compounds that inhibit NOD1 - Set 3. [Related pubchem assays (depositor defined):AID1566, AID1575, AID1578, AID1849, AID1852, AID2333, AID2335, AID2466]; assay type: functional
# Fatty acid synthase [10] = target: T2, Fatty acid synthase; assay: inhibition of human FAS-TE enzyme activity – biochemical, endpoint fluorescence intensity, uHTS hits, dose response (AID 624327); assay type: functional;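 note: fluorescence from hydrolysis of an O-methyl fluorescein acyl ester substrate by the enzyme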
# Interleukin-8 [11] = target: T6, Interleukin-8 (Homo sapiens, UniProt P10145); assay: SAR analysis of Tumor necrosis factor alpha (TNF-alpha) induced IL-8 secretion in MCF-7/NOD1 cells - Set 2. [Related pubchem assays (depositor defined):AID1575, AID2250, AID2260]; assay type: functional, cell-based
# Interleukin-8 [12] = target: T6, Interleukin-8; assay: SAR analysis of GM-Tri-DAP induced IL-8 secretion in MCF-7/NOD1 cells - Set 2. [Related pubchem assays (depositor defined):AID1575, AID1578, AID2333]; assay type: functional, cell-based
# [13] = target: T3, Nucleotide-binding oligomerization domain-containing protein 2; assay: inhibition of NOD2 signaling – set 2, SAR follow-up (AID 2475); assay type: functional
# [14] = target: Delta-type opioid receptor (Homo sapiens, UniProt P41143); assay: Counterscreen for agonists of heterodimerization of the mu 1 (OPRM1) and delta 1 (OPRD1) opioid receptors: Luminescence-based cell-based high throughput dose response assay to identify agonists of OPRD1 homodimerization. [Related pubchem assays (depositor defined):AID504326, AID504355, AID504692, AID504904, AID504905]; assay type: functional
# [15] = target: 5-hydroxytryptamine receptor 5A (Homo sapiens, UniProt P47898); assay: Counterscreen for agonists of OPRM1-OPRD1 heterodimerization: luminescence-based cell-based high throughput dose response assay to identify agonists of 5-hydroxytryptamine (serotonin) 5A receptor (HTR5A). [Related pubchem assays (depositor defined):AID504326, AID504355, AID504692, AID504904, AID504905]; assay type: functional
# [16] = target: T7, Short transient receptor potential channel 4 (Mus musculus, UniProt Q9QUQ5); assay: calcium entry via TRPC4 opening agents – cell-based, HEK293 TRPC4/mu-opioid, Fluo-4 calcium, dose response (AID 434937); assay type: functional
# T7 sequence (Q9QUQ5 whole entry): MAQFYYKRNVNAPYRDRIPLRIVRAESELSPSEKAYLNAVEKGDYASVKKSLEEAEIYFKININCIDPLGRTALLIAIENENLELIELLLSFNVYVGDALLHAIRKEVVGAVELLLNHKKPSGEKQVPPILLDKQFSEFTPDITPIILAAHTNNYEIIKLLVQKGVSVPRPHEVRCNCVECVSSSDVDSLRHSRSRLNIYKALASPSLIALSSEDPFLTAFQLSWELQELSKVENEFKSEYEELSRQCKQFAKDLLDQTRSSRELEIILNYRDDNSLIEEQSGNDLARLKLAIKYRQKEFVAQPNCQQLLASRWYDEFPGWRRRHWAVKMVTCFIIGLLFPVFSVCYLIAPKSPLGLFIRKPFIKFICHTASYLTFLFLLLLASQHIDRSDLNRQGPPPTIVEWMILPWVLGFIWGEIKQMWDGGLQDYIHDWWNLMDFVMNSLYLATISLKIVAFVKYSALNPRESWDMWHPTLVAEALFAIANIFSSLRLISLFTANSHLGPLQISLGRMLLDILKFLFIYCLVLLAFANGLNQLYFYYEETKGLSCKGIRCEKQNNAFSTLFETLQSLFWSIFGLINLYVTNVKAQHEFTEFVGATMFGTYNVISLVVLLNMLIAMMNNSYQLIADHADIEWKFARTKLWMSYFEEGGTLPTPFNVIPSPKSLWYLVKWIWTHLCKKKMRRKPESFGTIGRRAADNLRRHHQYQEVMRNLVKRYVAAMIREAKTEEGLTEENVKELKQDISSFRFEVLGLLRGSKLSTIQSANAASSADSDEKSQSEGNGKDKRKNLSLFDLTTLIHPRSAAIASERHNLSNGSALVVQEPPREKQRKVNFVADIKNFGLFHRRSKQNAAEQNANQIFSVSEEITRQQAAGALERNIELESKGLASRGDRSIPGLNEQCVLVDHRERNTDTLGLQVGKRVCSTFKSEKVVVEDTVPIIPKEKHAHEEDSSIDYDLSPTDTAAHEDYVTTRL
# Mu-type opioid receptor = Mu-type opioid receptor (Homo sapiens, UniProt P35372); assay: Counterscreen for agonists of heterodimerization of the mu 1 (OPRM1) and delta 1 (OPRD1) opioid receptors: Luminescence-based cell-based high throughput dose response assay to identify agonists of OPRM1 homodimerization.; assay type: functional;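 note: U2OS cells expressing OPRM1 and beta-arrestin as split beta-galactosidase partners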
# Tumor necrosis factor [17] = target: T5, Tumor necrosis factor; assay: analog potency on TNFa NF-kB signaling – cell-based, revised, SAR follow-up (AID 2337); assay type: functional
# [18] = target: T1, Nucleotide-binding oligomerization domain-containing protein 1; assay: blockers of NOD1 pathway activity – revised, SAR follow-up (AID 2333); assay type: functional
# [19] = target: T3, Nucleotide-binding oligomerization domain-containing protein 2; assay: PubChem AID 2334; assay type: functional
# HEK293 [20] = assay: cells; settings: Homo sapiens
# [21] = target: Dual specificity protein phosphatase 3 (Homo sapiens, UniProt P51452); assay: SAR VHR1 Fluorescent Assay for In Vitro dose response studies Set 3. [Related pubchem assays (depositor defined):AID1654, AID1661, AID1878]; assay type: functional
# Cytochrome P450 2D6 = Cytochrome P450 2D6 (Homo sapiens, UniProt P10635);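 note: CYP2D6 member of a cytochrome P450 panel assay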
# Cytochrome P450 2C9 = Cytochrome P450 2C9 (Homo sapiens, UniProt P11712)
# Chain of Cytochrome P450 2C9 (P11712 whole entry): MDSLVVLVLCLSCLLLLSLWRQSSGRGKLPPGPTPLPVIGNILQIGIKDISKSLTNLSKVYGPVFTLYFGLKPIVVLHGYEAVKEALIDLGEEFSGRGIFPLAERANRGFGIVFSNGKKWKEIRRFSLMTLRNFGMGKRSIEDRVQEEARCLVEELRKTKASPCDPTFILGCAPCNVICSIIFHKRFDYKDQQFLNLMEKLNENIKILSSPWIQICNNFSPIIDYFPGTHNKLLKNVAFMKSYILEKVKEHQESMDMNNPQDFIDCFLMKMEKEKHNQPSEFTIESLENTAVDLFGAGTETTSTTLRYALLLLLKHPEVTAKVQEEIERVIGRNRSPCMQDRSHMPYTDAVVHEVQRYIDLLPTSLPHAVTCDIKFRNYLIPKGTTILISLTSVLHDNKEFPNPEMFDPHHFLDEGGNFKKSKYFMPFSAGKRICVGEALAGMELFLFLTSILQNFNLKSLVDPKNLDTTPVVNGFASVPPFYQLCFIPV
# T3 sequence (Q9HC29 whole entry, the tested form may be a part): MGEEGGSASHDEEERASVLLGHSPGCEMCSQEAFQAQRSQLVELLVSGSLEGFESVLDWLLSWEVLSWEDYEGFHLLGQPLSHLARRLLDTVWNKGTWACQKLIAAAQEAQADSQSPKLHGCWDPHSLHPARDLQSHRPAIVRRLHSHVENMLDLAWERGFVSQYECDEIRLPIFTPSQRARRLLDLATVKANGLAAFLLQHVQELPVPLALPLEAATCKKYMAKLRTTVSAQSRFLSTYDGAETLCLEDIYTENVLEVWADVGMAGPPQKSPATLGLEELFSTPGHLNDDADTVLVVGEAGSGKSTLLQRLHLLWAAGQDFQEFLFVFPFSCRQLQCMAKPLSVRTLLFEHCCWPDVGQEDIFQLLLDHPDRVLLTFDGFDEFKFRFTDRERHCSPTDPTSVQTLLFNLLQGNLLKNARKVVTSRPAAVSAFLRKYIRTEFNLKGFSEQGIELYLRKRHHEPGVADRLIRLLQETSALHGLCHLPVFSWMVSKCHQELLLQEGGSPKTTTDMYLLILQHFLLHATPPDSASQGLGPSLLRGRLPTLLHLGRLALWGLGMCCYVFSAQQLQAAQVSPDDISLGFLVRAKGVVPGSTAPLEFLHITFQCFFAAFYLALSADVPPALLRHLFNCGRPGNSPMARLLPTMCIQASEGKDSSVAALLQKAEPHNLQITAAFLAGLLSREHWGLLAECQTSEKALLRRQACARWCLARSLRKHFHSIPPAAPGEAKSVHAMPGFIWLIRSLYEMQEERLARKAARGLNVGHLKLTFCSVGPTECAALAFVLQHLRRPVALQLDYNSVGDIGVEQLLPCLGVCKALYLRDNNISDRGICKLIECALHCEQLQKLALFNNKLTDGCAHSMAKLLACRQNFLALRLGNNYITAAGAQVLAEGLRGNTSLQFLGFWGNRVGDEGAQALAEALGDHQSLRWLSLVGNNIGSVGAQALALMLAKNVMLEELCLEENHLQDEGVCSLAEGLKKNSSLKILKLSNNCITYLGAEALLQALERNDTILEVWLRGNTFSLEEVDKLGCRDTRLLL
# T5 sequence (P01375 whole entry, the tested form may be a part): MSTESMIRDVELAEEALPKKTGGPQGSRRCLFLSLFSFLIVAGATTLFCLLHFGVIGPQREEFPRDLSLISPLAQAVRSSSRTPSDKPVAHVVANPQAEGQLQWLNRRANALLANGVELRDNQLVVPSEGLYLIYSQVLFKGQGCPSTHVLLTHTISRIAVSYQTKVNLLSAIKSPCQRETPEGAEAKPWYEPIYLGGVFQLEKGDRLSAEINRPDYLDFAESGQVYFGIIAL
# T2 sequence (P49327 whole entry, the tested form may be a part): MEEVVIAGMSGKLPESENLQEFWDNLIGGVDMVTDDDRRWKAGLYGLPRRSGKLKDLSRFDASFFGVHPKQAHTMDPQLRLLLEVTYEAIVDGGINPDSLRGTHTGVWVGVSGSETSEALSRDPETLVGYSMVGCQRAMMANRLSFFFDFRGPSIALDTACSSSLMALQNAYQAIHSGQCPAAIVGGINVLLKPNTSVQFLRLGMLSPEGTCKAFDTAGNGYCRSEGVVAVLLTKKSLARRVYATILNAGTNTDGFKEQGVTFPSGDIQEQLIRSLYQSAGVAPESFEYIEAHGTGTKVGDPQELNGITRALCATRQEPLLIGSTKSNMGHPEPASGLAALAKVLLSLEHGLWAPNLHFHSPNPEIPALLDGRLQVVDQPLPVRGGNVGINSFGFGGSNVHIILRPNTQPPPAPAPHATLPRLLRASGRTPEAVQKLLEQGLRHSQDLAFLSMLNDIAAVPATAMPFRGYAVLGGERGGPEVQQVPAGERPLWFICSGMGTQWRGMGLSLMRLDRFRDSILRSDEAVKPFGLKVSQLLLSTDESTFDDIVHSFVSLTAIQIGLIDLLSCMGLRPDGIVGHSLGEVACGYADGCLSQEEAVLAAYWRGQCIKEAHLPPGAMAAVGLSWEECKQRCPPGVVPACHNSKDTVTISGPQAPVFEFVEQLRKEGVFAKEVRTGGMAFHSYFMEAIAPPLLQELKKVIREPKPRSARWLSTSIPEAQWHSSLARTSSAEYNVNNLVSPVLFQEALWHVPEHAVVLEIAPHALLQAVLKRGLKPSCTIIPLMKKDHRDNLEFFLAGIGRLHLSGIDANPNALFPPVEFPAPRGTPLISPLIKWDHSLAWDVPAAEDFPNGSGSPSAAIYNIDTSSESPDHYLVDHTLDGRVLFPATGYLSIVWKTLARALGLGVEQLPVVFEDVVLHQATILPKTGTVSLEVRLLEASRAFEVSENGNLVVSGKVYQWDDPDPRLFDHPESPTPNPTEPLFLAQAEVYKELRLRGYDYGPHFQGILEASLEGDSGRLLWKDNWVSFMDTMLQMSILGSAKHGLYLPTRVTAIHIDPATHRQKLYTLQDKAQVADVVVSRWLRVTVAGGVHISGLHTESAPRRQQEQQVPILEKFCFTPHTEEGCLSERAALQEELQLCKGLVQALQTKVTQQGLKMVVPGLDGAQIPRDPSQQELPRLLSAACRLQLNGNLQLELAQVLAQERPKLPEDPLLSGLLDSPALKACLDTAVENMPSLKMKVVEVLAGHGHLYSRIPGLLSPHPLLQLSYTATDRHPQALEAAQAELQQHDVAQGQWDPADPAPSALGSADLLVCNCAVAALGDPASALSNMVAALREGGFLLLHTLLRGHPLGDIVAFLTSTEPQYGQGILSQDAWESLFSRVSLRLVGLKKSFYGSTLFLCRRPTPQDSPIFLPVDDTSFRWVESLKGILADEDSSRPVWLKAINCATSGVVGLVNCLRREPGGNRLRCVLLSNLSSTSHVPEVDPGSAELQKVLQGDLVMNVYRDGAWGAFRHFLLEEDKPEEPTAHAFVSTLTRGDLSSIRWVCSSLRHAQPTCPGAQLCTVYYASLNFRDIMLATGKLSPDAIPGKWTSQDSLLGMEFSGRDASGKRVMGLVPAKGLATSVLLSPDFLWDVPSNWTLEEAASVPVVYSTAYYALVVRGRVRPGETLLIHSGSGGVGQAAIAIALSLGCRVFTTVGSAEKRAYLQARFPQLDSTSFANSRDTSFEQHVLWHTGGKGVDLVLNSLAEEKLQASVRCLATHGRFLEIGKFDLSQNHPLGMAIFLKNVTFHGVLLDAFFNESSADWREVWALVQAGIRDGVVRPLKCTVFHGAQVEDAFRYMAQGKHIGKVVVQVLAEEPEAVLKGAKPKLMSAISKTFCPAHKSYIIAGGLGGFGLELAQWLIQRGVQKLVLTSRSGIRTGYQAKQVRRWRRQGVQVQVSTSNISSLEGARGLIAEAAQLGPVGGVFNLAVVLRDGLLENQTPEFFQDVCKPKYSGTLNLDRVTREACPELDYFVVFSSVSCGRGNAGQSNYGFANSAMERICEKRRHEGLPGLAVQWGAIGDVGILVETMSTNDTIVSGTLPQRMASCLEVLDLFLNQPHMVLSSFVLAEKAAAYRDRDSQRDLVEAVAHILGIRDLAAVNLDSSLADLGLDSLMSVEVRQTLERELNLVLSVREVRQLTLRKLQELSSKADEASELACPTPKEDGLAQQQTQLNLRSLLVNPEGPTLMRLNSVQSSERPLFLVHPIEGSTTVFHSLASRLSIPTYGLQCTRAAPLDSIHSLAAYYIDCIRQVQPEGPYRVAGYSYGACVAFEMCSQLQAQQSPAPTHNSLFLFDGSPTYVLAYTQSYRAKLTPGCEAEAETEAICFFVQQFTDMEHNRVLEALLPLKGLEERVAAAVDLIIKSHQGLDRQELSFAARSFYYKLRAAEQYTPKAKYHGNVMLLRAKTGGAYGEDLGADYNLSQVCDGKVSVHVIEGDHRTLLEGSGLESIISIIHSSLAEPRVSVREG
# T6 sequence (P10145 whole entry): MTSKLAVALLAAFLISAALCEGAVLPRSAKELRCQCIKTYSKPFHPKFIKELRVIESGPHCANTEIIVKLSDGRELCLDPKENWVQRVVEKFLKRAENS
# Chain of Mu-type opioid receptor (P35372 whole entry): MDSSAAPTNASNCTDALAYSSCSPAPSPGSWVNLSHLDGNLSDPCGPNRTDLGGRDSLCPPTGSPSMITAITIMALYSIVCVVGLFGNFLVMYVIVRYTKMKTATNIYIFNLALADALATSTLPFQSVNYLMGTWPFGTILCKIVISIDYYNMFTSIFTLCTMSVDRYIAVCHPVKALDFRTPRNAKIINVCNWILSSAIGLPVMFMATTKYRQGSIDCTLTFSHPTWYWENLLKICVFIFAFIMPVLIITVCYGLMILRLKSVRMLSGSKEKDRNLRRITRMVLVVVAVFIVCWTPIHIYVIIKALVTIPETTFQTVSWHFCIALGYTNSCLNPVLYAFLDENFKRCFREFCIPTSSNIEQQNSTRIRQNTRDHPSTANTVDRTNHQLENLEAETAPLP
# Chain of Dual specificity protein phosphatase 3 (P51452 whole entry): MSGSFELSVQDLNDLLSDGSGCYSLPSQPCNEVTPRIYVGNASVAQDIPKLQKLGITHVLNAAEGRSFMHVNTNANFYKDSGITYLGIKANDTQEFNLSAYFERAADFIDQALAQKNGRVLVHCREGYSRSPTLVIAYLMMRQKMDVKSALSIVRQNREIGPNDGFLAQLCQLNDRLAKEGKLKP
smiles,measurement,setting,value
CCCCn1c(CN2CCN(c3cccc(Cl)c3)CC2)nc2c1c(=O)n(C)c(=O)n2C,IC50,[1],8.7 µM (active)
same,IC50,Fatty acid synthase [2],5.74 µM (active)
same,IC50,[3],1.41 µM (active)
same,IC50,[4],15.1 µM (active)
same,IC50,HEK293 [5],> 20 µM (inactive)
same,IC50,[6],2.18 µM (active)
same,IC50,HEK293 [7],> 20 µM (inactive)
same,IC50,Tumor necrosis factor [8],3.35 µM (active)
same,IC50,[9],1.8 µM (active)
same,IC50,Fatty acid synthase [10],5.07 µM (active)
same,IC50,Interleukin-8 [11],> 25 µM (inactive)
same,IC50,Interleukin-8 [12],> 25 µM (inactive)
same,IC50,[13],2.21 µM (active)
CCOC(=O)C1(CCOc2ccccc2)CCN(Cc2cnc(C)s2)CC1,EC50,[14],> 92.5 µM (inactive)
same,EC50,[15],> 92.5 µM (inactive)
same,EC50,[16],0.237 µM (active)
same,EC50,Mu-type opioid receptor,> 92.5 µM (inactive)
CC1(C)Cc2c(sc(NC(=O)c3ccccc3Cl)c2C(=O)O)CO1,IC50,Tumor necrosis factor [17],> 20 µM (inactive)
same,IC50,[18],> 20 µM (inactive)
same,IC50,[19],> 20 µM (inactive)
same,IC50,HEK293 [20],> 20 µM (inactive)
Cc1ccc2sc(-c3ccc(NC(=O)c4cc(-n5cnnc5)ccc4Cl)cc3)nc2c1,IC50,[21],11.4 µM (active)
CCOC(=O)COc1c(C=O)cc(Br)cc1OC,AC50,Cytochrome P450 2D6,inconclusive
same,AC50,Cytochrome P450 2C9,inconclusive
